Literature values, collected in US20180228811A1, “GDNF INDUCTION FOR THE TREATMENT OF RETINAL DISORDERS” (THE SCHEPENS EYE RESEARCH INSTITUTE, INC., priority 2014, published 2018).

Test system: photoreceptors
Conditions: rd10 mouse, systemic treatment (Mitton et al. 2014); cited from earlier work

## CCCC(CCC)C(=O)O [VPA, Valproic acid]
  photoreceptor rescue, result in words: partial photoreceptor rescue
